The text below walks through data of patent publication US4311702A, “Imidazo[1,2-a]pyridines having anti-ulcer activity” (Poli Industria Chimica S.p.A., priority 1979, dated 1982).

Structures are written as SMILES. Where two headings read alike, the source gives them in different places.

The test system of test [1] is gastric secretion (hydrochloric acid). The test is described as follows: Activity on gastric secretion in Shay rats (total acidity). The class given is in vivo, rat (Wistar male). As to conditions: Rattus norvegicus, read-out: Shay rats total acidity ED50. How it is done: Wistar male rats, weighing 160-200 g, starved for 24 hours are treated orally with the compound under study after pylorus ligation under light ethereal anesthesia. 4 hours later rats are anesthetized with ether and after oesophagus ligation, the stomachs are removed and the contents collected. After centrifugation of the gastric juice, the quantity of hydrochloric acid is determined by titration with 0.01 N Sodium hydroxide, using phenolphthalein as indicator.

Test [2] deals with cold and restraint gastric ulcers. The test is described as follows: Cold and restraint gastric ulcers in the rat. The class given is in vivo, rat (Wistar female). As to conditions: po, read-out: Cold and restraint gastric ulcers ED50. How it is done:
cold and restraint gastric ulcers induced in the rat following the under mentioned method originally described by E. C. Senay and R. J. Levine in Proc. Soc.
Wistar female rats fasting from the previous evening are introduced in plastic tubes having such a diameter to exert a light constriction and immediately after they are put in a thermoregulated ambient at about 4° C. Two hours later the rats are sacrificed under ethereal anesthesia and their stomachs are examined to ascertain the presence of ulcers.
The ulcer index of each stomach is determined, multiplying the number of gastric lesions of any kind by a corresponding arbitrary value (petechiae=0.5; punctiform ulcer=1; linear ulcer<2 mm=2; linear ulcer>2 mm=3) and adding the partial scores. Rats are treated with the compound under study half an hour before cold exposure.

Test [3] has as its system acetylsalicylic acid and pylorus ligation gastric ulcers. The test is described as follows: Acetylsalicylic acid and pylorus ligation gastric ulcers in the rat. As to conditions: read-out: Acetylsalicylic acid and pylorus ligation gastric ulcers ED50. The class given is in vivo, rat (Wistar male). Here is the method:
Wistar male rats, weighing 160-200 g, fasting from the previous evening are administered intraduodenum with the compound under study immediately after pylorus ligation under light ethereal anesthesia. Two hours after treatment rats receive orally 50 mg/kg of acetylsalicylic acid, dissolved in 5% gum arabic solution. An hour later rats are sacrificed under ether anesthesia and stomachs examined for presence of ulcers.

In test [4] the test system is indomethacin gastric ulcers. The test is described as follows: Indomethacin gastric ulcers in the rat. The class given is in vivo, rat (Wistar male). As to conditions: po, read-out: Indomethacin gastric ulcers ED50. How it is done:
indomethacin gastric ulcers, induced in the rat following the under mentioned method originally described by Y. H. Lee, K. W. Mollison, W. C. Cheng in Arch. Int. Pharmacodyn.
Wistar male rats, weighing 160-200 g, starved for 24 hours, are administered endoperitoneally with 30 mg/kg of indomethacin in 0.6% aqueous suspension of 1% gum arabic solution and immediately after they are treated orally with the compound under study. 5 hours later animals are sacrificed under ethereal anesthesia, the stomachs are removed, open along the great curvature and examined for the presence of ulcers. The ulcer index is expressed in terms of square root of the number of gastric ulcers.

Setting [5] is: i.d. (Table 2 head), 4 hours after pylorus ligation, dose reducing secretion of hydrochloric acid by 50% compared with controls.
[6] abbreviates: os, half an hour before cold exposure, dose reducing the ulcer index by 50% compared with controls.
Where [7] appears, read: intraduodenum immediately after pylorus ligation, dose reducing the number of ulcers by 50% compared with controls.
[8] abbreviates: os, 30 mg/kg indomethacin endoperitoneally, dose reducing the ulcer index by 50% compared with controls.

As to `CN/C(=N/CCSCc1nc[nH]c1C)NC#N` [[…], Cimetidine, reference compound], the ED50 in test [1] (4 h) is 0.6 mg/kg; in test [2] it was 6.3 mg/kg; in test [3], 3.8 mg/kg; in test [4], 2.4 mg/kg.
In the case of `CNC(=NC#N)NCCSCc1cnc2ccccn12` [Ia], the ED50 in test [1] (setting [5]) turned out to be 1.8 mg/kg; in test [2] (setting [6]), 2.8 mg/kg; in test [3] (setting [7]) it was 7.3 mg/kg; in test [4] (setting [8]) it was 3.4 mg/kg.
Turning to `CNC(=NC#N)NCCSCc1c(C)nc2ccccn12` [Ib], the ED50 in test [1] (setting [5]) was determined as 1.1 mg/kg; in test [2] (setting [6]), 1.5 mg/kg; in test [3] (setting [7]), 2.1 mg/kg; in test [4] (setting [8]) it was 0.7 mg/kg.
As to `CNC(=NC#N)NCCSC(C)c1c(C)nc2ccccn12` (centres unmarked) [Id], the ED50 was 0.6 mg/kg in test [1] (setting [5]), 0.7 mg/kg in test [2] (setting [6]), 0.9 mg/kg in test [3] (setting [7]) and 0.9 mg/kg in test [4] (setting [8]).
As for `CNC(=NC#N)NCCSC(C)c1cnc2ccccn12` (centres unmarked) [Ic], the ED50 was found to be 2.8 mg/kg in test [1] (setting [5]), 1.9 mg/kg in test [2] (setting [6]), 5.7 mg/kg in test [3] (setting [7]) and 3.3 mg/kg in test [4] (setting [8]).

A word on the ED50: it is the dose at which the effect has come halfway, by size or by number of responders.
